Assay results from patent US8217060B2, “Benzimidazole derivatives useful as TRP M8 receptor modulators” (Janssen Pharmaceutica, NV, priority 2009, dated 2012).
pIC50: −log10 of the molar value. Structures can show the parent of a compound that is named as a salt.

Target: T1, canine TRPM8 (Canis lupus familiaris, UniProt Q1A7N1)
T1 construct: expressed in transfected cells
Assay: In Vitro Canine TRPM8 Functional Assay (icilin-induced intracellular Ca2+ fluorescence, FLIPR/FDSS)
Type: cell-based
Conditions: HEK293 cells stably expressing canine TRPM8; for inhibition at 0.2 µM: 0.2 μM test compound, icilin challenge; for pIC50: icilin challenge (~80% maximal response), eight-point dose-response
Protocol: The functional activity of representative compounds of the formula (I) of the present invention were measured by measuring changes in intracellular calcium concentration using a Ca^2+-sensitive fluorescent dye. The changes in fluorescent signal were monitored by a fluorescence plate reader, either a FLIPR™ (Molecular Devices) or FDSS (Hamamatsu).
HEK293 cells stably expressing canine TRPM8 were routinely grown as monolayers in Dulbecco's minimum essential medium supplemented with 10% FBS, 2 mM L-glutamine, 100 units/mL penicillin, 100 ug/mL streptomycin and 400 μg/mL G418. Cells were maintained in 5% CO2 at 37° C. At 24 hrs prior to assay, cells were seeded in black wall, clear-base poly-D-lysine coated 384-well plates (BD Biosciences, NJ, USA) at a density of 5,000 cells per well in culture medium and grown overnight in 5% CO2 at 37° C. On assay day, growth media was removed and cells were loaded with Calcium 3 Dye (Molecular Devices) for 35 min at 37° C., under 5% CO2 and then for 25 min at room temperature and atmosphere. Subsequently, cells were tested for agonist-induced increases in intracellular Ca^2+ levels using FLIPR™ or FDSS. Cells were challenged with compounds of the formula (I) (at varying concentrations) and intracellular Ca^2+ was measured for 5 min prior to the addition of icilin to all wells to achieve a final concentration that produces approximately an 80% maximal response.
Basal FI was subtracted prior to normalizing data to percent of maximal response. Curves were generated using the average of quadruplicate wells for each data point, were analyzed using nonlinear regression of either sigmoidal dose response or sigmoidal dose response (variable slope). Finally, the EC50 and IC50 values were calculated with the best-fit dose curve determined by GraphPad Prism

T1 sequence (Q1A7N1 1-1104): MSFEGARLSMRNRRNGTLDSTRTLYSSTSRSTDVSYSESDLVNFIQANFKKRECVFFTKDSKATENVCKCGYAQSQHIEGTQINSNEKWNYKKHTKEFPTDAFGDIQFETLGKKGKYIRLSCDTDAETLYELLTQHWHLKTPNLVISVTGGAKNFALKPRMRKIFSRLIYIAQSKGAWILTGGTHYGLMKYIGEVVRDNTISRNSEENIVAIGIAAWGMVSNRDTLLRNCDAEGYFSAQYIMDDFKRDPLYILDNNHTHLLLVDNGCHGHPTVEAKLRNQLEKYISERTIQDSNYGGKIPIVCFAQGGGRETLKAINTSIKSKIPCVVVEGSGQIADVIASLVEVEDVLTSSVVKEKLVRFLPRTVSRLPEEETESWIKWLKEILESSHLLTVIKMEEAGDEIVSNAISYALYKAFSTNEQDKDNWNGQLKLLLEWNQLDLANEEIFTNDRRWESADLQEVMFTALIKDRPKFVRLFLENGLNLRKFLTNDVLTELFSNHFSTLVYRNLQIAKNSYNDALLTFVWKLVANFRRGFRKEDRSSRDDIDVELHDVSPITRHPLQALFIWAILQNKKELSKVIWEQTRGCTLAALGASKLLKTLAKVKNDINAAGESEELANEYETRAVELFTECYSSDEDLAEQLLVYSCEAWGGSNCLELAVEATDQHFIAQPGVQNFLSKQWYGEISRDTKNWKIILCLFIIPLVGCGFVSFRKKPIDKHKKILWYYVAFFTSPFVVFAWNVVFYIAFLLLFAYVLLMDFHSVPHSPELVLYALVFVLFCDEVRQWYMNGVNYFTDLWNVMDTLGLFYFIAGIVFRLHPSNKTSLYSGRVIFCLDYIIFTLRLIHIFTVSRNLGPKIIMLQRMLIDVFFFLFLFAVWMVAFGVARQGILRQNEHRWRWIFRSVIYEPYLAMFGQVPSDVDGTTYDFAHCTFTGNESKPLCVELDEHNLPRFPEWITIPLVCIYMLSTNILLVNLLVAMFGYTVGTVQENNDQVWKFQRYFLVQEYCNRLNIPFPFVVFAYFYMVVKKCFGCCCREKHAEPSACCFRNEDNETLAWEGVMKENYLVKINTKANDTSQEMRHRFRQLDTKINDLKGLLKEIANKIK

Row | inhibition at 0.2 µM | pIC50 | SMILES
1 | 100% | 7.80 | FC1=CCC(C=Cc2nc3cc(-c4ccccc4F)ccc3[nH]2)CC1 (stereo not drawn) [Compound 36, 2-[2-(4-Fluoro-cyclohex-3-enyl)-vinyl]-5-(2-fluoro-phenyl)-1H-benzoimidazole hydrochloride salt]
2 | 100% | 8.10 | FC1(F)CCC(C=Cc2nc3cc(-c4ccccc4OC(F)(F)F)ccc3[nH]2)CC1 [Compound 37, 2-[2-(4,4-Difluoro-cyclohexyl)-vinyl]-5-(2-trifluoromethoxy-phenyl)-1H-benzoimidazole hydrochloride salt]
3 | 101% | 8.46 | FC1(F)CCC(C=Cc2nc3cc(-c4ccccc4Cl)ccc3[nH]2)CC1 [Compound 38, 5-(2-Chloro-phenyl)-2-[2-(4,4-difluoro-cyclohexyl)-vinyl]-1H-benzoimidazole hydrochloride salt]
4 | 101% | 8.05 | Fc1ccccc1-c1ccc2[nH]c(C=CC3CCC(F)(F)CC3)nc2c1 [Compound 39, 2-[2-(4,4-Difluoro-cyclohexyl)-vinyl]-5-(2-fluoro-phenyl)-1H-benzoimidazole hydrochloride salt]
5 | 101% | 8.70 | COc1cccc(OC)c1-c1ccc2[nH]c(C=CC3CC=C(F)CC3)nc2c1 (stereo not drawn) [Compound 40, 5-(2,6-Dimethoxy-phenyl)-2-[2-(4-fluoro-cyclohex-3-enyl)-vinyl]-1H-benzoimidazole hydrochloride salt]
6 | 100% | 8.22 | COc1cccc(F)c1-c1ccc2[nH]c(C=CC3CC=C(F)CC3)nc2c1 (stereo not drawn) [Compound 41, 2-[2-(4-Fluoro-cyclohex-3-enyl)-vinyl]-5-(2-fluoro-6-methoxy-phenyl)-1H-benzoimidazole hydrochloride salt]
7 | 101% | 8.52 | Fc1cccc(C(F)(F)F)c1-c1ccc2[nH]c(C=CC3CCC(F)(F)CC3)nc2c1 [Compound 42, 2-[2-(4,4-Difluoro-cyclohexyl)-vinyl]-5-(2-fluoro-6-trifluoromethyl-phenyl)-1H-benzoimidazole hydrochloride salt]
8 | 100% | 8.70 | COc1cccc(OC)c1-c1ccc2[nH]c(C=CC3CCC(F)(F)CC3)nc2c1 [Compound 43, 2-[2-(4,4-Difluoro-cyclohexyl)-vinyl]-5-(2,6-dimethoxy-phenyl)-1H-benzoimidazole hydrochloride salt]
9 | 101% | 8.52 | COc1cccc(F)c1-c1ccc2[nH]c(C=CC3CCC(F)(F)CC3)nc2c1 [Compound 44, 2-[2-(4,4-Difluoro-cyclohexyl)-vinyl]-5-(2-fluoro-6-methoxy-phenyl)-1H-benzoimidazole hydrochloride salt]
10 | 101% | 8.15 | COc1ccc(F)cc1-c1ccc2[nH]c(C=CC3CCC(F)(F)CC3)nc2c1 [Compound 45, 2-[2-(4,4-Difluoro-cyclohexyl)-vinyl]-5-(5-fluoro-2-methoxy-phenyl)-1H-benzoimidazole hydrochloride salt]
11 | 99% | 8.40 | FC1=CCC(C=Cc2nc3cc(-c4ccccc4C(F)(F)F)cc(C(F)(F)F)c3[nH]2)CC1 (stereo not drawn) [Compound 46, 2-[2-(4-Fluoro-cyclohex-3-enyl)-vinyl]-7-trifluoromethyl-5-(2-trifluoromethyl-phenyl)-1H-benzoimidazole hydrochloride salt]
12 | 99% | 8.20 | FC1(F)CCC(/C=C/c2nc3cc(-c4ccccc4C(F)(F)F)cc(C(F)(F)F)c3[nH]2)CC1 [Compound 47, 2-[2-(4,4-Difluoro-cyclohexyl)-vinyl]-7-trifluoromethyl-5-(2-trifluoromethyl-phenyl)-1H-benzoimidazole hydrochloride salt]
13 | 99% | 8.22 | Cc1cc(-c2ccccc2OC(F)(F)F)cc2nc(C=CC3CCCCC3)[nH]c12 [Compound 48, 2-(2-Cyclohexyl-vinyl)-7-methyl-5-(2-trifluoromethoxy-phenyl)-1H-benzoimidazole hydrochloride salt]
14 | 99% | 8.52 | Cc1cc(-c2ccccc2C(F)(F)F)cc2nc(C=CC3CCCCC3)[nH]c12 [Compound 49, 2-(2-Cyclohexyl-vinyl)-7-methyl-5-(2-trifluoromethyl-phenyl)-1H-benzoimidazole hydrochloride salt]
15 | 95% | 7.51 | FC(F)(F)c1ccccc1-c1ccc2[nH]c(/C=C/C3CCSCC3)nc2c1 [Compound 51, (E)-2-[2-(Tetrahydro-thiopyran-4-yl)-vinyl]-5-(2-trifluoromethyl-phenyl)-1H-benzimidazole]
16 | 91% | 7.15 | Fc1ccccc1-c1ccc2[nH]c(/C=C/C3CCOCC3)nc2c1 [Compound 52, (E)-5-(2-Fluoro-phenyl)-2-[2-(tetrahydro-pyran-4-yl)-vinyl]-1H-benzimidazole trifluoroacetic acid salt]
17 | 102% | 8.10 | Cc1cc(-c2ccccc2C(F)(F)F)cc2nc(/C=C/C3CCOCC3)[nH]c12 [Compound 53, (E)-7-Methyl-2-[2-(tetrahydro-pyran-4-yl)-vinyl]-5-(2-trifluoromethyl-phenyl)-1H-benzimidazole hydrochloride]
18 | 1% | – | FC(F)(F)c1cc(-c2ccc3[nH]c(/C=C/C4CCOCC4)nc3c2)ccn1 [Compound 54, (E)-2-[2-(Tetrahydro-pyran-4-yl)-vinyl]-5-(2-trifluoromethyl-pyridin-4-yl)-1H-benzimidazole hydrochloride]
19 | 99% | 7.96 | FC(F)(F)c1ncccc1-c1ccc2[nH]c(/C=C/C3CCCCC3)nc2c1 [Compound 56, (E)-2-(2-Cyclohexyl-vinyl)-5-(2-trifluoromethyl-pyridin-3-yl)-1H-benzimidazole hydrochloride]
20 | 101% | 8.10 | Fc1cccc(C(F)(F)F)c1-c1ccc2[nH]c(/C=C/C3CCCCC3)nc2c1 [Compound 57, (E)-2-(2-Cyclohexyl-vinyl)-5-(2-fluoro-6-trifluoromethyl-phenyl)-1H-benzimidazole]
21 | 92% | 7.35 | FC(F)(F)c1cccnc1-c1ccc2[nH]c(/C=C/C3CCCCC3)nc2c1 [Compound 60, (E)-2-(2-Cyclohexyl-vinyl)-5-(3-trifluoromethyl-pyridin-2-yl)-1H-benzimidazole]
22 | 97% | 7.49 | Fc1cccc(F)c1-c1ccc2[nH]c(/C=C/C3CCOCC3)nc2c1 [Compound 61, (E)-5-(2,6-Difluoro-phenyl)-2[2-(tetrahydro-pyran-4-yl)-vinyl]-1H-benzoimidazole hydrochloride]
23 | 92% | 7.68 | FC(F)(F)c1cccnc1-c1ccc2[nH]c(/C=C/C3CCOCC3)nc2c1 [Compound 62, (E)-2-[2-(Tetrahydro-pyran-4-yl)-vinyl]-5-(3-trifluoromethyl-pyridin-2-yl)-1H-benzoimidazole hydrochloride]
24 | 97% | 7.92 | Cc1cc(-c2ccccc2C(F)(F)F)cc2nc(/C=C/C3CCC(C)(C)CC3)[nH]c12 [Compound 63, (E)-2-[2-(4,4-Dimethyl-cyclohexyl)-vinyl]-7-methyl-5-(2-trifluoromethyl-phenyl)-1H-benzoimidazole hydrochloride]
25 | 98% | 7.64 | CC1(C)CCC(/C=C/c2nc3cc(-c4ccccc4C(F)(F)F)ccc3[nH]2)CC1 [Compound 64, (E)-2-[2-(4,4-Dimethyl-cyclohexyl)-vinyl]-5-(2-trifluoromethyl-phenyl)-1H-benzoimidazole hydrochloride]
26 | 96% | 7.26 | CC1(C)CCC(/C=C/c2nc3cc(-c4c(F)cccc4F)ccc3[nH]2)CC1 [Compound 65, (E)-5-(2,6-Difluoro-phenyl)-2-[2-(4,4-dimethyl-cyclohexyl)-vinyl]-1H-benzoimidazole trifluoroacetic acid salt]
27 | 101% | 7.51 | CC1(/C=C/c2nc3cc(-c4ccccc4C(F)(F)F)ccc3[nH]2)CCOCC1 [Compound 66, (E)-2-[2-(4-Methyl-tetrahydro-pyran-4-yl)-vinyl]-5-(2-trifluoromethyl-phenyl)-1H-benzimidazole]
28 | 100% | 7.89 | CC1(/C=C/c2nc3cc(-c4c(C(F)(F)F)cccc4C(F)(F)F)ccc3[nH]2)CCOCC1 [Compound 67, (E)-5-(2,6-Bis-trifluoromethyl-phenyl)-2-[2-(4-methyl-tetrahydro-pyran-4-yl)-vinyl]-1H-benzimidazole]
29 | 102% | 7.96 | C/C(=C\c1nc2cc(-c3ccccc3C(F)(F)F)ccc2[nH]1)C1CCCCC1 [Compound 69, (E)-2-(2-Cyclohexyl-propenyl)-5-(2-trifluoromethyl-phenyl)-1H-benzimidazole]
